Measured values taken from patent publication US20180099931A1 (AbbVie S.à.r.l., priority 2016, published 2018).
Like-named read-outs stand apart in the source and are kept apart here.

Biological target: T1, F508delCFTR (Homo sapiens, UniProt P13569, DEL508-508)
T1 construct: expressed in transfected cells; host or cells: CFBE41o- human lung-derived epithelial cells (CFBE4lo-F508delCFTR-HRP), doxycycline-inducible
Assay: Cell Surface Expression-Horse Radish Peroxidase (CSE-HRP) Assay;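 for Maximum % activity (with co-corrector): co-corrector and positive control are both the same reference corrector at 2 µM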;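 for Maximum % activity (without co-corrector): percent of the 2 µM on-plate positive control corrector response above DMSO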
Assay type: cell-based
Details: for Maximum % activity (with co-corrector) / Emax: maximum at any tested concentration, normalized to on-plate positive control; for Emax: read-out: Maximum % activity (without co-corrector)
Experimental: Cell Surface Expression-Horse Radish Peroxidase (CSE-HRP) Assay;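 for Maximum % activity (with co-corrector): co-corrector and positive control are both the same reference corrector at 2 µM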;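 for Maximum % activity (without co-corrector): percent of the 2 µM on-plate positive control corrector response above DMSO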
The development was achieved by expressing the F508delCFTR mutation along with a horseradish peroxidase (HRP) in the fourth exofacial loop, and then measuring the HRP activity using luminescence readout from these cells, CFBE4lo-F508delCFTR-HRP, that were incubated overnight with the test corrector compounds, either without or with the co-corrector. […] The test compounds were then added either without or with a co-corrector at the required concentrations and further incubated for 18-24 hours at 33° C. The highest concentration tested was 20 μM with an 8-point concentration response curve using a 3-fold dilution in both the test compound without or with the co-corrector. Three replicate plates were run to determine one EC50. All plates contained negative controls (dimethyl sulfoxide, DMSO) and positive control (2 μM of 3-[(2R,4R)-4-({[1-(2,2-difluoro-1,3-benzodioxol-5-yl)cyclopropyl]carbonyl}amino)-7-methoxy-3,4-dihydro-2H-chromen-2-yl]benzoic acid) as well as on-plate concentration response of the positive control. […] The raw counts from the experiment were analyzed using Accelrys® Assay Explorer v3.3.
1−[3*SDPositive Control+3*SDNegative Control/Absolute(MeanPositive Control−MeanNegative Control)]
wherein “SD” is standard deviation.
The % activity measured at each of the 8 test concentrations of the test compound added either without or with a co-corrector (2 μM of 3-[(2R,4R)-4-({[1-(2,2-difluoro-1,3-benzodioxol-5-yl)cyclopropyl]carbonyl}amino)-7-methoxy-3,4-dihydro-2H-chromen-2-yl]benzoic acid) was normalized to the on-plate positive control using the following formulae:
% activity(Test compound without co-corrector)=[(test compound without co-corrector response−DMSO response)/(positive control response−DMSO response)]*100
% activity(Test compound with co-corrector)=[(test compound with co-corrector response−DMSO response)/(positive control response−DMSO response)]*100
The maximum % activity achieved for the test compound either without or with a co-corrector at any tested concentration is presented in Table 4 along with the respective EC50's calculated using the following general sigmoidal curve with variable Hill slope equation (described as Model 42 in the Accelrys® Assay Explorer v3.3 software):
General sigmoidal curve with concentration, response, top, bottom, EC50 and Hill slope. This model describes a sigmoidal curve with an adjustable baseline, a. The equation can be used to fit curves where response is either increasing or decreasing with respect to the independent variable, “x”.
“x” is a concentration of drug under test. “y” is the response. “a” is the maximum response, and “d” is the minimum response “c” is the inflection point (EC50) for the curve. That is, “y” is halfway between the lower and upper asymptotes when x=c. “b” is the slope-factor or Hill coefficient. The sign of b is positive when the response increases with increasing dose and is negative when the response decreases with increasing dose (inhibition).

[1] = CSE-HRP, test compound without co-corrector, read-out: EC50 (without co-corrector)
[2] = CSE-HRP, with co-corrector (2 μM of 3-[(2R,4R)-4-({[1-(2,2-difluoro-1,3-benzodioxol-5-yl)cyclopropyl]carbonyl}amino)-7-methoxy-3,4-dihydro-2H-chromen-2-yl]benzoic acid), read-out: EC50 (with co-corrector)
[3] = CSE-HRP, with co-corrector (2 μM)
[4] = test compound without co-corrector
[5] = test compound without co-corrector, read-out: EC50 (without co-corrector)
[6] = with co-corrector (2 μM of 3-[(2R,4R)-4-({[1-(2,2-difluoro-1,3-benzodioxol-5-yl)cyclopropyl]carbonyl}amino)-7-methoxy-3,4-dihydro-2H-chromen-2-yl]benzoic acid)
[7] = with co-corrector (2 μM of 3-[(2R,4R)-4-({[1-(2,2-difluoro-1,3-benzodioxol-5-yl)cyclopropyl]carbonyl}amino)-7-methoxy-3,4-dihydro-2H-chromen-2-yl]benzoic acid), read-out: EC50 (with co-corrector)

T1 sequence (P13569 with tags, fused parts or gaps DEL508-508): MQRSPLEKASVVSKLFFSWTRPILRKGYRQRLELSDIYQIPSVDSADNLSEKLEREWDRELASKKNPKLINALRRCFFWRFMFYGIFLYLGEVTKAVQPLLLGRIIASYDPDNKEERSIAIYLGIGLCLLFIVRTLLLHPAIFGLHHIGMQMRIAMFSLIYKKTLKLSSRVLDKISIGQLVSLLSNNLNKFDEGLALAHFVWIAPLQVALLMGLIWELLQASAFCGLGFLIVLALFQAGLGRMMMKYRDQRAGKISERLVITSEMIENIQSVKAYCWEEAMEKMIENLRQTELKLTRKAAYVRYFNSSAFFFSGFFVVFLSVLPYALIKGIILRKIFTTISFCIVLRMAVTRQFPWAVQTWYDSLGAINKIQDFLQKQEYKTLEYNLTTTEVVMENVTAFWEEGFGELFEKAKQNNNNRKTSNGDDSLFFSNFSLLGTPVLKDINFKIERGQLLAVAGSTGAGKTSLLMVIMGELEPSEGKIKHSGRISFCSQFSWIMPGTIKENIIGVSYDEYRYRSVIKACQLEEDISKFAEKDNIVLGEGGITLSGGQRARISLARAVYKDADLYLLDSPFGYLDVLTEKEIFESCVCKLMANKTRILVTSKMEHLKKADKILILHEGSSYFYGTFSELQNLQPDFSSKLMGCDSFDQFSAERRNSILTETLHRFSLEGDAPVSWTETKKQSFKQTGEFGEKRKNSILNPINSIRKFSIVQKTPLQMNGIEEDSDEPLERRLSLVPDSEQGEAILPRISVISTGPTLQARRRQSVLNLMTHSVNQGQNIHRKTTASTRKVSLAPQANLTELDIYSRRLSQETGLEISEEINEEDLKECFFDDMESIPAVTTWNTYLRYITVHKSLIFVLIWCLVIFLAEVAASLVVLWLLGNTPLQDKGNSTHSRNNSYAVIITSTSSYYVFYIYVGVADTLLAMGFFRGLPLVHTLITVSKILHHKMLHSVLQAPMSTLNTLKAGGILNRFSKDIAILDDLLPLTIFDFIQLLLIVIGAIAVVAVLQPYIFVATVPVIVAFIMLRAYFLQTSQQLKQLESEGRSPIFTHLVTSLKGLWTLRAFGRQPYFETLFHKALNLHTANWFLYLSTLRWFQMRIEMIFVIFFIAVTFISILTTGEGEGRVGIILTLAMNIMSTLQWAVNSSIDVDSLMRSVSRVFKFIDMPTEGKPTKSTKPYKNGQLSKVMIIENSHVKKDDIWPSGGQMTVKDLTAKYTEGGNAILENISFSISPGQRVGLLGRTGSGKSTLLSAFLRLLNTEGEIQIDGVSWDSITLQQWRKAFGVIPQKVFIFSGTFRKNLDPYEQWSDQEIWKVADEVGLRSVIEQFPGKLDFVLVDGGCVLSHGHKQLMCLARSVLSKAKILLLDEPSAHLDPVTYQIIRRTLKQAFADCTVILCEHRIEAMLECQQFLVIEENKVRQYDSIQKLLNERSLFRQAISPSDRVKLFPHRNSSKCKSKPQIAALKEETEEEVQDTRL

Structure (SMILES) | EC50 [1] | EC50 [2] | Maximum % activity (with co-corrector) [3] | Emax (CSE-HRP, without co-corrector) | Emax [4] | EC50 [5] | Maximum % activity (with co-corrector) [6] | EC50 [7] | Maximum % activity (with co-corrector) (with co-corrector (2 μM)) | Emax (without co-corrector)
COc1cccc(S(=O)(=O)N2[C@H](C(=O)O)[C@@H](C(C)(C)C)[C@H](NCc3cc(C4CCC4)cnc3OC)[C@@H]2c2ccccc2C(C)C)n1 [Example I-303] | 1000 to 10000 nM | 1000 to 10000 nM | +++ (≥350) | < 100% | – | – | – | – | – | –
COc1c(Cl)cccc1CN[C@@H]1[C@@H](C(C)(C)C)[C@H](C(=O)O)N(C(=O)C2CCCCC2)[C@@H]1c1ccccc1 (racemic) [II-7] | 1000 to 10000 nM | 1000 to 10000 nM | +++ (≥350) | < 100% | – | – | – | – | – | –
COc1ccc(C23CC(C2)C3)cc1CN[C@H]1[C@H](C(C)(C)C)[C@@H](C(=O)O)N(C(=O)C2CCCCC2)[C@H]1c1ccccc1F [II-517] | – | – | – | – | > 200% | 1000 to 10000 nM | +++ (≥350) | < 1000 nM | – | –
COc1ccc(C23CC(C2)C3)cc1CN[C@H]1[C@H](C(C)(C)C)[C@@H](C(=O)O)N(C(=O)OC(C)C)[C@H]1c1cccnc1OC [Example I-224] | – | – | – | – | – | 1000 to 10000 nM | – | 1000 to 10000 nM | +++ (≥350) | 100 to 200%
COc1cc2c(cc1CN[C@H]1[C@H](C(C)(C)C)[C@@H](C(=O)O)N(C(=O)[C@@H]3CCCCO3)[C@H]1c1cccc3c1OCC3)CCCC2 [Example I-302] | 1000 to 10000 nM | 1000 to 10000 nM | +++ (≥350) | 100 to 200% | – | – | – | – | – | –
CC(C)(C)[C@H]1[C@H](NCc2cccc(C(F)(F)F)c2)[C@H](c2ccccc2)N(C(=O)C2CCCCC2)[C@@H]1C(=O)O [II-122] | 1000 to 10000 nM | 1000 to 10000 nM | ++ (≥150 and <350) | < 100% | – | – | – | – | – | –
COc1ccc(C(C)(C)C)cc1CN[C@H]1[C@H](C(C)(C)C)[C@@H](C(=O)O)N(C(=O)C2Cc3ccccc3O2)[C@H]1c1cccnc1N(C)C (single isomer, unassigned) [II-421] | – | – | – | – | < 100% | 1000 to 10000 nM | ++ (≥150 and <350) | 1000 to 10000 nM | – | –
COc1ccc(C(C)(C)C)cc1CN[C@H]1[C@H](C(C)(C)C)[C@@H](C(=O)O)N(C(=O)C2CC2c2ccc(F)cc2)[C@H]1c1ccccc1 (some centres unmarked) [II-307] | < 1000 nM | < 1000 nM | +++ (≥350) | > 200% | – | – | – | – | – | –
COc1ccc(CN[C@H]2[C@H](C(C)(C)C)[C@@H](C(=O)O)N(C(=O)C3CCCCC3)[C@H]2c2ccccc2)cc1C(F)(F)F [II-127] | 1000 to 10000 nM | 1000 to 10000 nM | ++ (≥150 and <350) | < 100% | – | – | – | – | – | –
COc1ncc([Si](C)(C)C)cc1CN[C@H]1[C@H](C(C)(C)C)[C@@H](C(=O)O)N(C(=O)C2CCCCC2)[C@H]1c1ccccc1 [Example 47, (2S,3S,4S,5S)-3-tert-butyl-1-(cyclohexanecarbonyl)-4-({[2-methoxy-5-(trimethylsilyl)pyridin-3-yl]methyl}amino)-5-phenylpyrrolidine-2-carboxylic acid] | – | – | – | – | – | < 1000 nM | – | < 1000 nM | – | –
CC(C)(C)[C@@H]1[C@@H](NCc2cccc(OC3CCOCC3)n2)[C@@H](c2ccccc2)N(C(=O)C2CCCCC2)[C@H]1C(=O)O (racemic) [III-10] | – | – | – | – | < 100% | > 10000 nM | ++ (≥150 and <350) | 1000 to 10000 nM | – | –
COc1ccc(C(C)(C)C)cc1CN[C@H]1[C@H](C(C)(C)C)[C@@H](C(=O)O)N(C(=O)c2ccc(OC3CCCCC3)cc2)[C@H]1c1cccnc1N(C)C [Example I-200] | – | – | – | – | – | 1000 to 10000 nM | – | < 1000 nM | +++ (≥350) | 100 to 200%
COc1cc(-c2ccccc2)ccc1CN[C@@H]1[C@@H](C(C)(C)C)[C@H](C(=O)O)N(C(=O)OC(C)C)[C@@H]1c1ccccc1 (racemic) [III-92] | – | – | – | – | < 100% | > 10000 nM | + (<150) | > 10000 nM | – | –
COc1ncc(Br)cc1CN[C@H]1[C@H](C(C)(C)C)[C@@H](C(=O)O)N(C(=O)C2CCCCC2)[C@H]1c1ccccc1 [II-158] | < 1000 nM | < 1000 nM | +++ (≥350) | 100 to 200% | – | – | – | – | – | –
COc1ccc(C(C)(C)C)cc1CN[C@H]1[C@H](C(C)(C)C)[C@@H](C(=O)O)N(C(=O)c2cnn(-c3ccc(F)cc3)c2C)[C@H]1c1ccccc1 [II-354] | – | – | – | – | > 200% | < 1000 nM | +++ (≥350) | < 1000 nM | – | –
COc1cc(Cl)ccc1CN[C@@H]1[C@@H](C(C)(C)C)[C@H](C(=O)O)N(C(=O)C2CCCOC2)[C@@H]1c1ccccc1N(C)C (mixture of isomers) [II-23] | 1000 to 10000 nM | 1000 to 10000 nM | +++ (≥350) | 100 to 200% | – | – | – | – | – | –
COc1cc(C(F)(F)F)ccc1CN[C@@H]1[C@@H](C(C)(C)C)[C@H](C(=O)O)N(C(=O)C(C)Oc2ccccc2)[C@@H]1c1ccccc1 (single isomer, unassigned) [II-67] | 1000 to 10000 nM | – | ++ (≥150 and <350) | – | – | – | – | – | – | –
COc1ccc(C(C)(C)C)cc1CN[C@H]1[C@H](C(C)(C)C)[C@@H](C(=O)O)N(C(=O)CN2CCCCCC2)[C@H]1c1ccccc1 [Example I-100] | – | – | – | – | – | 1000 to 10000 nM | – | 1000 to 10000 nM | +++ (≥350) | > 200%
COc1ccc(C(C)(C)C)cc1CN[C@H]1[C@H](C(C)(C)C)[C@@H](C(=O)O)N(C(=O)[C@@H]2[C@@H](C(F)(F)F)[C@@H]3CC[C@H]2O3)[C@H]1c1cccnc1N(C)C (relative stereo) [Example I-204] | – | – | – | – | – | < 1000 nM | – | < 1000 nM | +++ (≥350) | > 200%
COc1ccc(C(F)(F)F)cc1CN[C@@H]1[C@@H](C(C)(C)C)[C@H](C(=O)O)N(C(=O)C(OC)c2ccccc2)[C@@H]1c1cccnc1N(C)C (relative stereo) [III-88] | – | – | – | – | < 100% | > 10000 nM | ++ (≥150 and <350) | 1000 to 10000 nM | – | –
CC(C)OC(=O)N1[C@H](C(=O)O)[C@@H](C(C)(C)C)[C@H](NCCc2ccccc2)[C@@H]1c1ccccc1 [Example I-263] | 1000 to 10000 nM | 1000 to 10000 nM | ++ (≥150 and <350) | < 100% | – | – | – | – | – | –
